Experimental data published in PMC8037310, “Thrombin-Derived Peptides Potentiate the Activity of Gram-Positive-Specific Antibiotics against Gram-Negative Bacteria” (Molecules, 2021).
“And” between values parts separate entries of the source, which are not always exact repeats. Equal entries are not always repeated. Where two headings read alike, the source gives them in different places. Bridge positions count the residues as written; N and C are the ends. Square brackets hold non-standard residues; d marks the D form. Peptide text beside a SMILES is read from it. Dab = NCC[C@H](N)C(=O)O

How the values were obtained:
[1] = tested on: E. coli BW25113; test: microbe, parasite or virus in culture; assay type: cell-based, Escherichia coli
Experimental: (§1) All peptides were screened for antimicrobial activity against E. coli BW25113, E. coli ATCC25922, and E. coli W3110. A select group of the peptides was further tested against E. coli mcr-1, E. coli EQASmcr-1 (EQAS 2016 412016126), E. coli EQASmcr-2 (EQAS 2016 KP37), E. coli EQASmcr-3 (EQAS 2017 2013-SQ352), K. pneumoniae ATCC13883, P. aeruginosa ATCC27853, and A. baumannii ATCC17978. The antimicrobial assay was performed according to CLSI guidelines. Bacteria were plated out directly from their glycerol stocks on blood agar plates, incubated overnight at 37 °C, and then kept in the fridge. The blood agar plates were only used for 2 weeks and then replaced.
(§2) One colony from a blood agar plates was inoculated in Lysogeny Broth (LB) at 37 °C until a 0.5 optical density at 600 nm (OD600) was reached (compared to the sterility control of LB). The bacterial suspension was diluted in fresh LB to 2.0 × 10^6 CFU/mL. The serial dilutions were prepared in polypropylene microtiter plates: a stock of the test compounds was prepared with a 2x final concentration in LB. Moreover, 100 µL of the stock was added to the wells of the top row of which 50 µL was used for the serial dilution. The bottom row of each plate was used as the positive (50 µL of LB) and negative controls (100 µL of LB) (6 wells each). Furthermore, 50 µL of the 2.0 × 10^6 CFU/mL bacterial stock was added to each well except for the negative controls, adding up to a total volume of 100 µL per well. The plates were sealed with a breathable seal and incubated for 20 h at 37 °C and 600 rpm.
(§3) Two 96-well plates were required per compound. A serial dilution of the compound was performed on two plates from row A–G using with LB as medium. Row H was filled with 25 µL medium. On a separate plate a negative control (8 wells, 100 μL medium) was prepared. For all concentrations of antibiotic a specific stock was prepared. 25 µL medium was added to the 0 µg/mL antibiotic columns (plate I, column 1–3). Of each antibiotic stock 25 µL was added to three columns to obtain triplicates for every condition. Both plates contained 50 µL in each well to which 50 µL bacterial stock was added (see the protocol of the MIC assays) and the plates were sealed. After incubation for 20 h at 37 °C while shaking, the breathable seals were removed and the density of the bacterial suspensions measured at 600 nm (OD600) using a Tecan Spark plate reader. The OD600 values were transformed to a 2D gradient with the negative control as minimum and the positive control (wells G1, G2, and G3) as maximum in excel. The FICi was calculated using Equation (1) with a FICi ≤ 0.5 indicating synergy. FICi = (MSCa/MICa) + (MSCb/MICb),(1)
(§4) Calculation of the FICi: MSCa = concentration of the […] in combination with the antibiotic that results in the lowest FICi. MICa = MIC of the antibiotic without synergist (row G). MSCb = concentration of the synergist in combination with the antibiotic that results in the lowest FICi. MICb = MIC of the synergist itself (Column 1–3, plate I).

[2] = tested on: E. coli BW25113; test: Checkerboard assay with erythromycin; assay type: cell-based, Escherichia coli; details: for MSCery: erythromycin concentration in the combination with the synergist giving the lowest FICi, E. coli BW25113; for MIC of the peptide (MICpep): synergist alone, from checkerboard with erythromycin; for MIC of the peptide (MICpep) / MSCpeptide, minimum synergistic concentration: E. coli BW25113, LB, 20 h 37 °C; for MSCpeptide, minimum synergistic concentration: synergist concentration in the combination with erythromycin giving the lowest FICi, OD600
Experimental: as §1, §2, §3, §4

[3] = tested on: E. coli BW25113; test: Membrane permeability assay using N-phenylnaphthalen-1-amine (NPN); assay type: cell-based, Escherichia coli; details: at […]; 60 min incubation, λex 355 nm, λem 420 nm, relative to 100 µg/mL colistin; n = 3 technical replicates
Experimental: Figure 7 Permeabilization assay of E. coli BW25113 using N-Phenyl-1-naphthylamine as fluorescent probe. The read-out was performed after 60 min of incubation using a plate reader with λex 355 nm and λem 420 nm. The N-phenyl-napthalen-1-amine (NPN) uptake values shown are relative to the uptake signal obtained upon treating the cells with 100 µg/mL colistin as previously reported. Error bars represent the standard deviation based on n = 3 technical replicates. A read-out was also performed after 10 min of incubation (see Supplementary data, Figure S16).
This assay was adapted from a protocol described in literature. Bacteria were inoculated overnight at 37 °C in LB, diluted the next day 50× in LB and grown to OD600 of 0.5. The bacterial suspension was then centrifuged for 10 min at 1000× g at 25 °C. The pellet of bacteria was resuspended in 5 mM HEPES buffer containing 20mM glucose to a final concentration of OD600 of 1.0. […] After 10 and 60 min, the plate was measured using Tecan plate reader with λex 355 nm ±20 nm and λem 420 nm ± 20 nm. The fluorescence values obtained were then transformed into a NPN uptake percentage using the following Equation (2):NPN uptake (%) = (Fobs − F0)/(F100 − F0) × 100%,(2)
Equation (2) consists of an observed value of fluorescence (Fobs), which is corrected for background using the negative control (F0). […]

[4] = tested on: E. coli BW25113; test: microbe, parasite or virus in culture; assay type: cell-based, Escherichia coli; remark: listed apart in the source
Experimental: as §1, §2, §3, §4

[5] = tested on: E. coli BW25113; assay type: cell-based, Escherichia coli; details: for MSCrif: rifampicin concentration in the combination giving the lowest FICi; for MSCrif / MSCpep: E. coli BW25113; for MICpep: synergist alone, E. coli BW25113, from checkerboard with rifampicin; for MSCpep: synergist concentration in the combination with rifampicin giving the lowest FICi
Experimental: as §1, §2, §3, §4

[6] = tested on: defibrinated sheep blood (red blood cells); test: Hemolysis assay; assay type: cell-based; details: 200 µg/mL compound, 20 h incubation at 37 °C with defibrinated sheep blood, PBS 0.002% Tween20, absorbance 415 nm, relative to 0.1% Triton X-100; n=3 technical replicates
Experimental: Defibrinated sheep blood (Thermo Fisher Scientific) and a phosphate-buffered saline (PBS) buffer containing 0.002% Tween20 were used in this assay. The red blood cells were washed with buffer followed by centrifugation (400 g for 15 min at 4 °C). The red blood cells were then normalized to obtain a positive control read-out around 2.5 at 415 nm to stay in the linear range with the maximum sensitivity. A serial dilution of the compounds (200–1.56 µg/mL, 75 µL) was prepared in a 96-well plate. Each plate contained a positive control (0.1% Triton X-100 final concentration, 75 µL) and the negative control (buffer, 75 µL). After addition of normalized blood cells (75 µL), the plates were incubated for 20 h at 37 °C at 500 rpm. The plates were centrifuged (800× g for 5 min at room temperature). For the next step flat-bottom polystyrene plates were prepared with 100 µL buffer in each well. Aliquots of 25 µL supernatant from the centrifuged plates were then transferred to their respective wells in the flat-bottom plate. Absorbance values where measured at 415 nm and corrected for background (negative control) and transformed to a percentage hemolysis relative to the positive control.

[7] = tested on: K. pneumoniae ATCC13883; test: Checkerboard assay with rifampicin; assay type: cell-based, Klebsiella pneumoniae
Experimental: as §1, §2, §3, §4

[8] = tested on: A. baumannii ATCC17978; test: microbe, parasite or virus in culture; assay type: cell-based, Acinetobacter baumannii
Experimental: as §1, §2, §3, §4

[9] = tested on: P. aeruginosa ATCC27853; test: Checkerboard assay with rifampicin; assay type: cell-based, Pseudomonas aeruginosa
Experimental: as §1, §2, §3, §4

[10] = tested on: E. coli ATCC25922; assay type: cell-based, Escherichia coli; details: rifampicin without synergist; E. coli ATCC25922
Experimental: as §1, §2, §3, §4

[11] = tested on: E. coli mcr-1; assay type: cell-based, Escherichia coli; details: rifampicin without synergist; E. coli mcr-1
Experimental: as §1, §2, §3, §4

`CC(C)C[C@@H]1NC(=O)[C@@H](Cc2ccccc2)NC(=O)[C@H](CCN)NC(=O)[C@@H](NC(=O)[C@H](CCN)NC(=O)[C@@H](N)[C@@H](C)O)CCNC(=O)[C@H]([C@@H](C)O)NC(=O)[C@H](CCN)NC(=O)[C@H](CCN)NC1=O` [PMBN, polymyxin B nonapeptide, reference compound] (H-T[Dab][Dab][Dab][dF]L[Dab][Dab]T; lactam 3-C (inferred); N-terminus assumed) was tested, and the MSCnovo ([1]; novobiocin concentration in the combination giving the lowest FICi, E. coli BW25113) was 6.25 µg/mL, the MICpeptide ([1]; synergist alone, E. coli BW25113, from checkerboard with novobiocin) was > 200 µg/mL and the MSCpeptide ([1]; synergist concentration in the combination with novobiocin giving the lowest FICi, E. coli BW25113) was 12.5 µg/mL. The FICi ([2]; BW25113, 20 h) was 0.125, the MSCery [2] was 12.5 µg/mL and the “MIC of the peptide (MICpep)” value [2] was > 200 µg/mL. The “MSCpeptide, minimum synergistic concentration” value [2] was 25 µg/mL, the “OM permeabilization (NPN uptake)” value [3] was “ca. 80%” and the MICpeptide ([4]; synergist alone, E. coli BW25113, from checkerboard with vancomycin) was > 200 µg/mL. The MSCpeptide ([4]; synergist concentration in the combination with vancomycin giving the lowest FICi, E. coli BW25113) was 12.5 µg/mL, the MSCvanco ([4]; vancomycin concentration in the combination giving the lowest FICi, E. coli BW25113) was 50 µg/mL and the MSCrif [5] was 0.25 µg/mL. For the same compound, the MICpep [5] was > 200 µg/mL and the MSCpep [5] was 12.5 µg/mL.

For `CC[C@@H](C)[C@@H](N)C(=O)N[C@@H](C(=O)N[C@H](CCCCN)C(=O)N[C@H](CCC(N)=O)C(=O)N[C@@H](C(=O)N[C@H](Cc1c[nH]c2ccccc12)C(=O)N[C@H](CCCCN)C(=O)N[C@H](CCCCN)C(=O)N[C@H](CC(C)C)C(=O)N[C@H](CCCNC(=N)N)C(=O)N[C@H](Cc1ccccc1)C(=O)N[C@@H](C(N)=O)C(C)C)[C@H](C)CC)C(C)C` [peptide 22] (H-[dI][dV][dK][dQ][dI][dW][dK][dK][dL][dR][dF][dV]-NH2), the MSCery [2] was 6.25 µg/mL, the “MIC of the peptide (MICpep)” value [2] was 100 µg/mL and the “MSCpeptide, minimum synergistic concentration” value [2] was 6.25 µg/mL. The Hemolysis [6] was 3.2% and 3%, the FICi ([5]; BW25113, 20 h) was 0.1406 and the MSCrif [5] was 0.25 µg/mL. For the same compound, the MICpep [5] was 50 µg/mL and the MSCpep [5] was 6.25 µg/mL.

In the case of `CO[C@H]1/C=C/O[C@@]2(C)Oc3c(C)c(O)c4c(O)c(c(/C=N/N5CCN(C)CC5)c(O)c4c3C2=O)NC(=O)/C(C)=C\C=C\[C@H](C)[C@H](O)[C@@H](C)[C@@H](O)[C@@H](C)[C@H](OC(C)=O)[C@@H]1C` [rifampicin, reference compound], the MIC ([7]; Klebsiella pneumoniae, ATCC13883, read-out: MIC of rifampicin (MICrif)) is reported as 32 µg/mL, the “MIC of rifampicin (MICrif)” value ([7]; rifampicin without synergist, K. pneumoniae ATCC13883) is reported as 32 µg/mL and the MIC ([8]; Acinetobacter baumannii, ATCC17978, read-out: MIC of rifampicin (MICrif)) is reported as 2 µg/mL. The “MIC of rifampicin (MICrif)” value ([8]; rifampicin without synergist, A. baumannii ATCC17978) was 2 µg/mL, the MIC ([9]; Pseudomonas aeruginosa, ATCC27853, read-out: MIC of rifampicin (MICrif)) was 16 µg/mL and the “MIC of rifampicin (MICrif)” value ([9]; rifampicin without synergist, P. aeruginosa ATCC27853) was 16 µg/mL. The MICrif [10] was 4 µg/mL and the MICrif [11] was 12 µg/mL.

`CN[C@H](CC(C)C)C(=O)N[C@H]1C(=O)N[C@@H](CC(N)=O)C(=O)N[C@H]2C(=O)N[C@H]3C(=O)N[C@H](C(=O)N[C@H](C(=O)O)c4cc(O)cc(O)c4-c4cc3ccc4O)[C@H](O)c3ccc(c(Cl)c3)Oc3cc2cc(c3O[C@@H]2O[C@H](CO)[C@@H](O)[C@H](O)[C@H]2O[C@H]2C[C@](C)(N)[C@H](O)[C@H](C)O2)Oc2ccc(cc2Cl)[C@H]1O` [vancomycin, reference compound] was tested, and the MIC ([4]; Escherichia coli, BW25113, read-out: MIC of vancomycin (MICvanco)) was > 200 µg/mL and the “MIC of vancomycin (MICvanco)” value ([4]; antibiotic without synergist, E. coli BW25113) was > 200 µg/mL.
